In ChEMBL document CHEMBL1156772, “Synthesis, affinity profile and functional activity of potent chiral muscarinic antagonists with a pyrrolidinylfuran structure” (J Med Chem, 2010):

Assays:
Muscarinic receptor 2 = biological target: T1, Muscarinic receptor 2 (Cavia porcellus, UniProt Q8VH27); experiment: Antagonist activity at muscarinic M2 receptor in guinea pig left atrium assessed as effect on electrically-stimulated inotropic activity after 60 mins; format: functional, tissue-based, Cardiac atrium; settings: read-out: pA2 (converted)
T1 sequence (Q8VH27 whole entry): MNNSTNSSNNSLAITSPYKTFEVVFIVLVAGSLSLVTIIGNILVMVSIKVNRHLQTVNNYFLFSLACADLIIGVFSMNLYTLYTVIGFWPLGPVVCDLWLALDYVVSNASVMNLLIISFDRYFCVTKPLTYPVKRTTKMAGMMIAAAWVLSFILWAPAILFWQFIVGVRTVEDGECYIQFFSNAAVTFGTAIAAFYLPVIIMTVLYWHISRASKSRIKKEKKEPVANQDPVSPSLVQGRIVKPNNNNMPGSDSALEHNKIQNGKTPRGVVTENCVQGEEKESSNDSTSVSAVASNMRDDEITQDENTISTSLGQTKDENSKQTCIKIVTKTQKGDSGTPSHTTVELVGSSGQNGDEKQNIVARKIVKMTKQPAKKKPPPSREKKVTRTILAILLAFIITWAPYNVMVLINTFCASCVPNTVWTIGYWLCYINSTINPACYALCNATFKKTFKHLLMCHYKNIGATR

Muscarinic receptor 4 = biological target: T2, Muscarinic receptor 4 (Cavia porcellus, UniProt Q8VH25); experiment: Antagonist activity at muscarinic M4 receptor in guinea pig lung strips assessed as effect on isotonic contraction after 60 mins; format: functional; settings: read-out: pA2 (converted)
T2 sequence (Q8VH25 whole entry): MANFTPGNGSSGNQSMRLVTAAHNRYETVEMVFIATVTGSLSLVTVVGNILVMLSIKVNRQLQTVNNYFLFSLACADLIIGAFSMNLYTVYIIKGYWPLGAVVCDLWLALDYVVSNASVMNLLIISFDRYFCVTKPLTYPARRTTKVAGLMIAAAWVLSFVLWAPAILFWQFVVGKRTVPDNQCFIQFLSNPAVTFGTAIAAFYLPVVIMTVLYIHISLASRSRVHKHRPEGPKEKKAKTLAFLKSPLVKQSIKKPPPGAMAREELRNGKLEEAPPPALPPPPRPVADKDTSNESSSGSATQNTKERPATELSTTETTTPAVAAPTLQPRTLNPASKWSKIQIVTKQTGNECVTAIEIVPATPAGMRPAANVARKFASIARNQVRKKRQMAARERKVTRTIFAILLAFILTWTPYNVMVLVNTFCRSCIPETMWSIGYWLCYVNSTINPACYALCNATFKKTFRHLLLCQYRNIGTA

In the case of C[N+]1(C)[C@@H]2C[C@@H](OC(=O)[C@H](CO)c3ccccc3)C[C@H]1[C@@H]1O[C@@H]12 [METHSCOPOLAMINE], the Kb (Muscarinic receptor 2) is reported as 0.468 nM and the Kb (Muscarinic receptor 4) is reported as 6.46 nM.
